From patent US20230233569A1 (Revolution Medicines, Inc., priority 2020, published 2023) come the findings set out here.

Common to all, as to test: Ras-Raf disruption / FRET / MOA assay (BRAF RBD)
Assay type in all cases: biochemical

One test concerns the target KRAS G12V (Homo sapiens, UniProt P01116+P62937, G12V). Conditions: Ras-Raf disruption, with Cyclophilin A; read-out: KRAS G12V FRET data IC50. In a few lines: (§1)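 TR-FRET in 25 mM HEPES pH 7.3, 100 mM NaCl, 5 mM MgCl2, 0.1% BSA, 0.002% Tween20 with 25 μM Cyclophilin A, 12.5 nM His6-Ras-GMPPNP, 50 nM GST-BRAF RBD; compound 10-point 3-fold series from 30 μM. After 3 h at 25 °C, Eu anti-His/APC anti-GST added for 1.5 h; IC50 from ratio decrease versus DMSO.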

For a further test, the target named is KRAS Q61H (Homo sapiens, UniProt P01116+P62937, Q61H). Conditions: KRAS Q61H; read-out: KRAS Q61H FRET data IC50. The gist of the method:
as §1

The target of the next test is KRAS G12S (Homo sapiens, UniProt P01116+P62937, G12S). Particulars: Ras-Raf disruption, with Cyclophilin A; read-out: KRAS G12S FRET data IC50. The gist of the method:
as §1

In a further test the target is NRAS WT (Homo sapiens, UniProt P01111+P62937). Conditions: NRAS WT; read-out: NRAS WT FRET data IC50. The gist of the method: as §1
Another test concerns the target KRAS WT (Homo sapiens, UniProt P01116+P62937). Conditions: Ras-Raf disruption, with Cyclophilin A; read-out: KRAS WT FRET data IC50. The gist of the method: as §1
Another test deals with KRAS G13C (Homo sapiens, UniProt P01116+P62937, G13C). Conditions: Ras-Raf disruption, with Cyclophilin A; read-out: KRAS G13C FRET data IC50. The gist of the method: as §1
The target in another test is NRAS Q61K (Homo sapiens, UniProt P01111+P62937, Q61K). Particulars: NRAS Q61K; read-out: NRAS Q61K FRET data IC50. In a few lines:
as §1

The target in another test is NRAS Q61R (Homo sapiens, UniProt P01111+P62937, Q61R). Particulars: NRAS Q61R; read-out: NRAS Q61R FRET data IC50. In a few lines:
as §1

For a further test, the target named is NRAS G12C (Homo sapiens, UniProt P01111+P62937, G12C). Particulars: NRAS G12C; read-out: NRAS G12C FRET data IC50. In a few lines: as §1
A further test has as its target KRAS G12D (Homo sapiens, UniProt P01116+P62937, G12D). Conditions: Ras-Raf disruption, with Cyclophilin A; read-out: KRAS G12D FRET data IC50. In a few lines:
as §1

The target in a further test is KRAS G13D (Homo sapiens, UniProt P01116+P62937, G13D). Conditions: Ras-Raf disruption, with Cyclophilin A; read-out: KRAS G13D FRET data IC50. The gist of the method:
as §1

A further test concerns the target KRAS G12C (Homo sapiens, UniProt P01116+P62937, G12C). Conditions: Ras-Raf disruption, with Cyclophilin A; read-out: KRAS G12C FRET data IC50. The gist of the method: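 His6-K-Ras G12C-GMPPNP (12.5 nM), GST-BRAF RBD (50 nM) and tagless Cyclophilin A (25 μM) incubated 3 h at 25 °C with compound (10-point 3-fold series from 30 μM), pH 7.3 HEPES buffer. Anti-His Eu/anti-GST APC added for 1.5 h; decreased TR-FRET ratio vs DMSO gives IC50.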

Molecules are shown by their SMILES.

Sequence of NRAS Q61K (P01111 whole entry Q61K): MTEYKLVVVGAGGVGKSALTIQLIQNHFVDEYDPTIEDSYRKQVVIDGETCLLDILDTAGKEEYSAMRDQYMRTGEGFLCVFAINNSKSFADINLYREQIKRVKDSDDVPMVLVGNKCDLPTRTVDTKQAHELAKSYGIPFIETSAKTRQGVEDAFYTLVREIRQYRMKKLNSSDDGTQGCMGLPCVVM
Sequence of NRAS Q61K (P62937 whole entry): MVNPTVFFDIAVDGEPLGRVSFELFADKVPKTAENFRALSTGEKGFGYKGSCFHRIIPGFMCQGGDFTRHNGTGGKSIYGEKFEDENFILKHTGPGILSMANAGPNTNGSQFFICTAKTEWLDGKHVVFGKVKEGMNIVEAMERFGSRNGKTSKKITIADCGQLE
Sequence of NRAS WT (P01111 whole entry): as the sequence (P01111 whole entry Q61K) above, with K61Q counted along it
Sequence of NRAS WT (P62937 whole entry): as the sequence (P62937 whole entry) above
Sequence of KRAS G12V (P01116 1-169 isoform P01116-2 G12V limits assumed): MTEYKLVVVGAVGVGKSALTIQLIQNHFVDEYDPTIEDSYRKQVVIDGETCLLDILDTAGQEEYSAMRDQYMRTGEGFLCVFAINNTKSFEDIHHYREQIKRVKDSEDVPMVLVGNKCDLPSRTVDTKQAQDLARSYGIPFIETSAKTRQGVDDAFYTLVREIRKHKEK
Sequence of KRAS G12V (P62937 whole entry): as the sequence (P62937 whole entry) above
Sequence of KRAS G12C (P01116 1-169 isoform P01116-2 G12C limits assumed): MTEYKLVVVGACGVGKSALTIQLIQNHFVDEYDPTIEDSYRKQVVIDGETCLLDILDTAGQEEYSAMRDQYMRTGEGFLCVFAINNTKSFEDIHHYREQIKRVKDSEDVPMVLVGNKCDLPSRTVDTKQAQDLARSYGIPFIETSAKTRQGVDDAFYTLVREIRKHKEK
Sequence of KRAS G12C (P62937 whole entry): as the sequence (P62937 whole entry) above
Sequence of KRAS WT (P01116 1-169 isoform P01116-2 limits assumed): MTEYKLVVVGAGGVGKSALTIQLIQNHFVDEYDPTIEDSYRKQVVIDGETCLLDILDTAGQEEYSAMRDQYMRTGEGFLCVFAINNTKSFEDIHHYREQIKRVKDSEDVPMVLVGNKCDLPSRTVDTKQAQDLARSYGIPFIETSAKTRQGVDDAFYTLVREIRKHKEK
Sequence of KRAS WT (P62937 whole entry): as the sequence (P62937 whole entry) above
Sequence of NRAS Q61R (P01111 whole entry Q61R): as the sequence (P01111 whole entry Q61K) above, with K61R counted along it
Sequence of NRAS Q61R (P62937 whole entry): as the sequence (P62937 whole entry) above
Sequence of KRAS G13C (P01116 1-169 isoform P01116-2 G13C limits assumed): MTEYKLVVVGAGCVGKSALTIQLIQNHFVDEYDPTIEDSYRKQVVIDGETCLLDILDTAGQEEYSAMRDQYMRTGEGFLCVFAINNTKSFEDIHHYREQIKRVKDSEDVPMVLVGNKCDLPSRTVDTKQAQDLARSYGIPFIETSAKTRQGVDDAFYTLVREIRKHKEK
Sequence of KRAS G13C (P62937 whole entry): as the sequence (P62937 whole entry) above
Sequence of NRAS G12C (P01111 whole entry G12C): as the sequence (P01111 whole entry Q61K) above, with G12C, K61Q counted along it
Sequence of NRAS G12C (P62937 whole entry): as the sequence (P62937 whole entry) above
Sequence of KRAS G12S (P01116 1-169 isoform P01116-2 G12S limits assumed): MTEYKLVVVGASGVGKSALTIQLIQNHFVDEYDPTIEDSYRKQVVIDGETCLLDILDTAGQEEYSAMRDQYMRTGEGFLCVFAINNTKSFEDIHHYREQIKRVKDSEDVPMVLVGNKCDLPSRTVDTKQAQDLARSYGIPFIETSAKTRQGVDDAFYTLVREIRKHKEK
Sequence of KRAS G12S (P62937 whole entry): as the sequence (P62937 whole entry) above
Sequence of KRAS Q61H (P01116 1-169 isoform P01116-2 Q61H limits assumed): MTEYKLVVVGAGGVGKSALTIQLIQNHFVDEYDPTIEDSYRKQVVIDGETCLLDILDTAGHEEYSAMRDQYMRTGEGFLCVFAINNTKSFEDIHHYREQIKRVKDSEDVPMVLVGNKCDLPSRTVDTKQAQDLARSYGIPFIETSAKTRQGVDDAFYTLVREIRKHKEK
Sequence of KRAS Q61H (P62937 whole entry): as the sequence (P62937 whole entry) above
Sequence of KRAS G13D (P01116 1-169 isoform P01116-2 G13D limits assumed): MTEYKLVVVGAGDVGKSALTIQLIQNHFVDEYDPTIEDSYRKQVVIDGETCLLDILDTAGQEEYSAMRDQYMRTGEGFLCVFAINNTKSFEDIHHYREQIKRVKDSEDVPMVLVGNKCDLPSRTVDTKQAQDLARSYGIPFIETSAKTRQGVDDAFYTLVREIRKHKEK
Sequence of KRAS G13D (P62937 whole entry): as the sequence (P62937 whole entry) above
Sequence of KRAS G12D (P01116 1-169 isoform P01116-2 G12D limits assumed): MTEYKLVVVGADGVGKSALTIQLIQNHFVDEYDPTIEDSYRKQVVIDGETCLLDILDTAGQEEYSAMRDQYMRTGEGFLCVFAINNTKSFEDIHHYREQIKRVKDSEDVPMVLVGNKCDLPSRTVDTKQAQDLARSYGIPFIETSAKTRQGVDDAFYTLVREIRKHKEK
Sequence of KRAS G12D (P62937 whole entry): as the sequence (P62937 whole entry) above

On to `CCn1c(-c2cccnc2[C@H](C)OC)c2c3cc(ccc31)-c1cc(O)cc(c1)C[C@H](NC(=O)[C@H](C(C)C)N(C)C(=O)CN(C)S(=O)(=O)[C@H]1CN1C)C(=O)N1CCC[C@H](N1)C(=O)OCC(C)(C)C2` (single isomer, unassigned) [Example 91], for which the IC50 was 100 to 1000 nM at KRAS G12V; 10 to 100 nM at KRAS Q61H; 10 to 100 nM on KRAS G12S; 10 to 100 nM on NRAS WT; 10 to 100 nM on KRAS WT; 10 to 100 nM on KRAS G13C. Besides, the IC50 lay in the range of 100 to 1000 nM on NRAS Q61K; 100 to 1000 nM on NRAS Q61R; 10 to 100 nM on NRAS G12C; 100 to 1000 nM at KRAS G12D; 100 to 1000 nM at KRAS G13D; 10 to 100 nM on KRAS G12C.

`CCn1c(-c2cccnc2[C@H](C)OC)c2c3cc(ccc31)-c1cc(O)cc(c1)C[C@H](NC(=O)[C@H](C(C)C)N(C)C(=O)CN(C)S(=O)(=O)[C@@H]1CN1C)C(=O)N1CCC[C@H](N1)C(=O)OCC(C)(C)C2` (single isomer, unassigned) [Example 92]: the IC50 lay in the range of 100 to 1000 nM on KRAS G12V; 10 to 100 nM at KRAS Q61H; 10 to 100 nM on KRAS G12S; 10 to 100 nM at NRAS WT; 10 to 100 nM at KRAS WT; 10 to 100 nM on KRAS G13C. Besides, the IC50 at NRAS Q61K was 100 to 1000 nM; at NRAS Q61R, 100 to 1000 nM; at NRAS G12C, 10 to 100 nM; at KRAS G12D, 100 to 1000 nM; on KRAS G13D it was 100 to 1000 nM; on KRAS G12C, 10 to 100 nM.

With `CCn1c(-c2cccnc2[C@H](C)OC)c2c3cc(ccc31)-c1cc(O)cc(c1)C[C@H](NC(=O)[C@H](C(C)C)N(C)C(=O)C1CCN(S(=O)(=O)[C@H]3CN3C)CC1)C(=O)N1CCC[C@H](N1)C(=O)OCC(C)(C)C2` (single isomer, unassigned) [Example 108], the IC50 on KRAS G12V is 100 to 1000 nM; at KRAS Q61H it was 10 to 100 nM; at KRAS G12S, 100 to 1000 nM; at NRAS WT, 100 to 1000 nM; on KRAS WT it was 100 to 1000 nM; at KRAS G13C, 10 to 100 nM. Further, the IC50 at NRAS Q61K was in the range of 100 to 1000 nM; at NRAS Q61R, 100 to 1000 nM; at NRAS G12C it was 100 to 1000 nM; on KRAS G12D, 1000 to 10000 nM; at KRAS G13D it was 100 to 1000 nM; on KRAS G12C, 100 to 1000 nM.

On to `CCn1c(-c2cccnc2[C@H](C)OC)c2c3cc(ccc31)-c1cc(O)cc(c1)C[C@H](NC(=O)[C@H](C(C)C)N(C)C(=O)C1CN(S(=O)(=O)[C@H]3CN3C)C1)C(=O)N1CCC[C@H](N1)C(=O)OCC(C)(C)C2` (single isomer, unassigned) [Example 117], for which the IC50 lay in the range of 100 to 1000 nM on KRAS G12V; 10 to 100 nM on KRAS Q61H; 100 to 1000 nM at KRAS G12S; 10 to 100 nM at NRAS WT; 100 to 1000 nM at KRAS WT; 10 to 100 nM at KRAS G13C. Further, the IC50 was in the range of 100 to 1000 nM at NRAS Q61K; 100 to 1000 nM on NRAS Q61R; 100 to 1000 nM on NRAS G12C; 1000 to 10000 nM on KRAS G12D; 100 to 1000 nM on KRAS G13D; 10 to 100 nM on KRAS G12C.

For orientation: IC50 means the concentration that inhibits the measured activity by half.
